Data set [1] in a line: Solubility remark in Table 2 (compound insoluble, no IC50 given). The format is physicochemical. As to conditions: Table 2, cell in place of 4A/4C/5A IC50.
Data set [2] concerns the target T1, KDM4C (Homo sapiens, UniProt Q9H3R0).
T1 construct: N-terminal GST-tagged KDM4C^2-372 was purchased from BPS Biosciences; GST (N); purchased BPS Biosciences
T1 sequence (Q9H3R0 2-372): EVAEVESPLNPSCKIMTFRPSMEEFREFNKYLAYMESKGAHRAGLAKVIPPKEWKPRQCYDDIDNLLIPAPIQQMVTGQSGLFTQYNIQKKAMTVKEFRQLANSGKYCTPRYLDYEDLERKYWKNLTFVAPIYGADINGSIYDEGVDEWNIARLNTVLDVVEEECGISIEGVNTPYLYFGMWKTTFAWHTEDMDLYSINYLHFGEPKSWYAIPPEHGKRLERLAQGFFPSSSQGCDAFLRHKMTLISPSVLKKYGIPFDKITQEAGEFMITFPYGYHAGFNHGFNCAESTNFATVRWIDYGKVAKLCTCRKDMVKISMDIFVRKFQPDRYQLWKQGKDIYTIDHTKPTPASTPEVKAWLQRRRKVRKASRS
The data set can be described thus: KDM4C Assay (SAMDI mass spectrometry demethylase assay). As to conditions: N-terminal GST-tagged KDM4C 2-372; class symbols; read-out: 4C IC50. It counts as biochemical. On the procedure: (§1) N-terminal GST-tagged KDM4C^2-372 was purchased from BPS Biosciences. Peptides were synthesized by BioPeptide and all other reagents were purchased from Sigma-Aldrich at the highest level of purity possible. Assays were performed in a 50 μL volume in 384-well V-bottom polypropylene microplates (Greiner) at 25° C. Optimized 1× assay buffer was 50 mM HEPES (pH=8.0), 100 μM sodium ascorbate, 20 mM NaCl, 10 μM ammonium iron sulfate, 1 mM tris(2-carboxyethyl)phosphine (TCEP), 0.002% Tween-20, and 0.005% BSG. For compound screening, 35 μL of KDM4C^2-372 (final concentration, f.c.=5 nM) was added using a Multidrop Combi and preincubated with 1 μL of test compound (f.c.=10 μM) for 30 minutes and subsequently 15 μL of peptide with the following sequence NH2-ARTKQTAR(Kme3)STGGKAPRKQLA(K-Ahx-Biotin)-amide (f.c.=500 nM) and 2-oxoglutarate (f.c.=15 μM) was added by Multidrop Combi to begin the reaction. Reactions proceeded for 150 minutes and were stopped by the addition of 5 μL of formic acid (f.c.=0.5%) using a Multidrop Combi and then analyzed by SAMDI Tech Inc.
(§2) SAMDI Tech analyzed all reactions using self-assembled monoloayer desorption/ionization technology as previously described (Gerard-Levin Z A, Scholle M D, Eisenberg A H, et al.: High-throughput screening of small molecule libraries using SAMDI mass spectrometry. ACS Comb Sci 2011; 13:347-350). Briefly, a 2 μL sample of the stopped demethylase reactions were transferred to a SAMDI array coated with 384 biotin-neutravidin spots using a 384-channel pipet station. The SAMDI arrays were incubated for 1 h in a humidified chamber, followed by washing of the surface with deionized ultra-filtered water (DIUF) and drying under nitrogen. A matrix of 30 mg/ml 2′,4′,6′-Trihydroxyacetophenone monohydrate (THAP) in acetone was applied using a TPP Mosquito 1.2 μL tip by dispensing 50 nL on each of the 384 spots on the array. SAMDI-MS was run using acquisition method ReflectorPositiveUTX. The % conversion of substrate to product was calculated using the AUC of the substrate and product peptide peaks.
(§3) An IC50 value was determined by contacting various concentrations of a test compound with one of the KDM4A, KDM4C or KDMSC enzyme constructs and plotting a dose-response curve which associates the amount of inhibition of the enzyme relative to the concentration of the test compound. From the curve, the IC50 value (which represents the concentration of the test compound necessary to inhibit maximal enzymatic activity by 50%) was determined. Additionally, the slope of the linear range of the plotted curve, which indicates the speed with which the curve rises between the minimum and maximum, was calculated.

Data set [3] concerns the target T2, KDM5A (Homo sapiens, UniProt P29375).
T2 construct: C-terminal FLAG-tagged KDM5A^1-1090 was purchased from BPS Biosciences; FLAG (C); purchased BPS Biosciences
T2 sequence (P29375 1-1090): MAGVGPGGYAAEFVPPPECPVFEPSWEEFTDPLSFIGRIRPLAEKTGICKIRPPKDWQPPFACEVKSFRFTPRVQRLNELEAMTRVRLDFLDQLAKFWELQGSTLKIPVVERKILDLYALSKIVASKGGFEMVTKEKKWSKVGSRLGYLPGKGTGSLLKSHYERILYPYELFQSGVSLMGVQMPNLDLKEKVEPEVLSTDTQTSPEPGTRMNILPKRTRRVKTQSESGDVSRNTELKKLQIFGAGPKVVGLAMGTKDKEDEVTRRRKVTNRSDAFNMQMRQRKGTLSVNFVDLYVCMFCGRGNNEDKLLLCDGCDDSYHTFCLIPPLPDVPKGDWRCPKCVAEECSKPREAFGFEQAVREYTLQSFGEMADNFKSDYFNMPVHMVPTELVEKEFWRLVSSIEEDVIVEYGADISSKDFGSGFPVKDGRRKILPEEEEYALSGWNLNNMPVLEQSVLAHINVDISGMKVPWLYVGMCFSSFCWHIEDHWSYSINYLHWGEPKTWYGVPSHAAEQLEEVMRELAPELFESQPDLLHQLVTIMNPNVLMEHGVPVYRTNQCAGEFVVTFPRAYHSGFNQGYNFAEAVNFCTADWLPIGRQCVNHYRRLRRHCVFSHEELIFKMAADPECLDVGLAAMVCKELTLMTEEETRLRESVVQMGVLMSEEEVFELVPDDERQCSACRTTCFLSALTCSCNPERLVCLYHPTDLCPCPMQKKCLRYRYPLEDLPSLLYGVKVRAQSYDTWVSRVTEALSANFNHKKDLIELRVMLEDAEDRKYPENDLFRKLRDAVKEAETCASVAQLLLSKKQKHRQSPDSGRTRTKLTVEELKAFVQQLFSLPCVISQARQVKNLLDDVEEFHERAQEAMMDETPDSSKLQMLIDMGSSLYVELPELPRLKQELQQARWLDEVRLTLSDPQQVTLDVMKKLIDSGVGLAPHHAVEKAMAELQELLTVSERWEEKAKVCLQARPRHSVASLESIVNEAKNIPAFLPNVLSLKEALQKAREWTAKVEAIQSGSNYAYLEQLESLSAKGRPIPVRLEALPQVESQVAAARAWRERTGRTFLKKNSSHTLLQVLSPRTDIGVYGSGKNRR
The experiment in a line: KDM5A Assay (SAMDI mass spectrometry demethylase assay). It counts as biochemical. As to conditions: C-terminal FLAG-tagged KDM5A 1-1090; class symbols; read-out: 5A IC50. On the procedure:
as §1, with “C-terminal FLAG-tagged KDM5A^1-1090” for “N-terminal GST-tagged KDM4C^2-372”, “[…]” for “KDM4C^2-372”, “f.c.=20” for “f.c.=5”, “NH2-ART[Kme-3]QTARKSTGGKA[K-Ahx-Biot]-amide (f.c.=250” for “NH2-ARTKQTAR(Kme3)STGGKAPRKQLA(K-Ahx-Biotin)-amide (f.c.=500”
as §2, §3

Each structure is given as a SMILES string.

Regarding `Cn1nc(-c2ccncc2)cc1Nc1cnccc1C(=O)O` [Compound 44, 3-((1-methyl-3-(pyridin-4-yl)-1H-pyrazol-5-yl)amino) isonicotinic acid], in data set [1], the “Solubility remark given instead of IC50 values” (“Solubility remark given instead” below) was “Insoluble”.

As for `Cc1ccccc1-n1ncc(Nc2cnccc2C(=O)O)c1C` [Compound 50, 3-((5-methyl-1-(o-tolyl)-1H-pyrazol-4-yl)amino)isonicotinic acid], the “Solubility remark given instead” value in data set [1] is on record as “Insoluble”.

For `Cc1c(Nc2cnccc2C(=O)O)nn(C)c1-c1ccccc1` [Compound 54, 3-((1,4-dimethyl-5-phenyl-1H-pyrazol-3-yl)amino)isonicotinic acid], the “Solubility remark given instead” value in data set [1] was “Insoluble”.

`Cc1cnn(C2CCCN(CCN)C2)c1Nc1cnccc1C(=O)O` (centres unmarked) [Compound 140, 3-(1-(1-(2-aminoethyl)piperidin-3-yl)-4-methyl-1H-pyrazol-5-yl-amino)isonicotinic acid]: the IC50 in data set [2] and in data set [3] was 10000 to 100000 nM each time.

`Cc1cn(C2CCCNC2)nc1Nc1cnccc1C(=O)O` (centres unmarked) [Compound 141, 3-(4-methyl-1-(piperidin-3-yl)-1H-pyrazol-3-ylamino) isonicotinic acid]: the 50% inhibitory concentration (IC50) in data set [2] was 100 to 1000 nM; in data set [3], 1 to 100 nM.

In the case of `Cc1cn(-c2cccc3c2CCNC3)nc1Nc1cnccc1C(=O)O` [Compound 143, 3-(4-methyl-1-(1,2,3,4-tetrahydroisoquinolin-5-yl)-1H-pyrazol-3-ylamino)isonicotinic acid], the IC50 in data set [2] lay within 100 to 1000 nM; in data set [3] it was 1 to 100 nM.

For `CN(C)CCc1cn(-c2ccccc2)nc1Nc1cnccc1C(=O)O` [Compound 144, 3-(4-(2-(dimethylamino)ethyl)-1-phenyl-1H-pyrazol-3-ylamino) isonicotinic acid], the IC50 in data set [2] and in data set [3] was 1000 to 10000 nM each time.

These data come from patent US20170291890A1 (Epizyme, Inc., priority 2014, published 2017).
